According to PMC10053623, “Water-Soluble Fullerene C60 Derivatives Are Effective Inhibitors of Influenza Virus Replication” (Microorganisms, 2023):

Key:
in vitro = conditions: dog
[1] = system: Influenza A/Puerto Rico/8/34 (H1N1) virus; test: microbe, parasite or virus in culture; type: cell-based

SMILES: CCC(CC)O[C@@H]1C=C(C(=O)O)C[C@H](N)[C@H]1NC(C)=O [Oseltamivir carboxylate]
- CC50 at 72 h (in vitro): > 200000 nM
- SI, selectivity index, the ratio of CC50 to IC50 [1]: >667
- IC50 ([1]; Influenza A virus, H1N1, MDCK, 72 h, read-out: IC50, inhibitory concentration causing a 50% decrease in virus-induced cell death): 300 ± 20 nM
